Consider 2 compounds from patent US20250205207A1, “MATRIX TABLETS OF DEXPRAMIPEXOLE AND METHODS OF MANUFACTURING AND USE THEREOF” (Areteia Therapeutics, Inc., priority 2023, published 2025).

Data set [1] has as its system eosinophil counts in human blood and tissues. To be noted: cited from earlier work.
A further data set deals with dopamine receptors. To be noted: compared to pramipexole; cited from earlier work.
For data set [2] the following is noted: across the physiological pH range; cited from earlier work.
For data set [3] the following is noted: during tablet manufacture and storage.

Turning to `CCCN[C@@H]1CCc2nc(N)sc2C1` [dexpramipexole, (6R)-2-amino-4,5,6,7-tetrahydro-6-(propylamino)benzothiazole], the “effect on eosinophil counts” value in data set [1] was “selectively and significantly lower eosinophil counts”. Moreover, the “affinity for dopamine receptors” value in the data set with dopamine receptors is recorded as “greatly reduced when compared to pramipexole”.
In the case of `CCCN[C@@H]1CCc2nc(N)sc2C1`, in data set [2], the solubility entry was “freely soluble”. Also, the “chiral purity over time” value in data set [3] is listed as “did not change over time”.
